≈ marks a conversion by molar mass, not a printed value. Read-outs that look alike come from different tables or passages of the source.
How the values were obtained:
in vitro = conditions: human, HepDES19 cells
[1] = system: C. neoformans var. grubii, KN99; experiment: C. neoformans growth inhibition assay (limiting dilution); type: cell-based, Cryptococcus neoformans; conditions: Cryptococcus neoformans, 48 h, 48 h, 35° C.
Experimental: Cell types used for C. neoformans studies. All inhibition assays were performed with C. neoformans var. grubii, KN99 (serotype A, MAT). Two clinical strains of C. neoformans var. grubii, serotype A, were provided by Tamara Doering and Andre Spec. […] Cells were diluted to OD650 0.001 in YNB-02 02 (0.67% yeast nitrogen base, 0.2% dextrose, pH 7.0 with 50 mM MOPs)+1% DMSO prior to addition to the plates for the inhibition assays.
C. neoformans growth inhibition assays. Compounds were tested in a limiting dilution assay with a starting optical density (at 650 nm) of 0.001 in YNB-02 plus 1% DMSO. Cells plus compound were incubated in 96-well clear round bottom plates covered with a Breath-easy® membrane without shaking for 48 hours at 35° C. Before measuring cell density, plates were shaken on a microtiter plate shaker at 900 rpm for 3 minutes to resuspend cells and optical density was measured at 650 nm. […] Each assay was done in triplicate and all values are the average of two or more independent assays. The data are presented as the average cell density as a percent of DMSO-only treated cells. MICs are reported as the minimal concentration needed to inhibit 80% of C. neoformans growth relative to vehicle-treated controls.

HBV replication = HBV replication inhibition in HepDES19 cells (strand-preferential qPCR); conditions: for EC50: Hepatitis B virus, HepDES19, read-out: HBV EC50, Table 3 sulfur compounds, HBV replication, HepDES19 cells
Experimental: Cells used for toxicity and HBV studies.
HBV replication inhibition studies. HepDES19 cells were seeded in 96-well plates at 4×10^4 cells per well in the absence of tetracycline. Test compounds in a final DMSO concentration of 1% were applied to cells 48 hours after induction of HBV replication and cells were incubated with compounds for 72 hours. Cells were washed in 200 μL of phosphate buffered saline (PBS) and lysed in 150 μL of core lysis buffer (10 mM Tris pH 7.4, 1% Tween20, 150 mM NaCl). Cells were incubated at room temperate on an orbital shaker at 350 rpm for 40 minutes. Cell lysate was transferred to a 96 well polymerase chain reaction (PCR) plate and centrifuged at 3300×g for 5 minutes. The supernatant (50 μL) from the cell lysate was transferred to a 96-well PCR plate and mixed with 20 units of micrococcal nuclease and 100 μM CaCl2. The lysate was incubated for 1 hour at 37° C., and then the nuclease was inactivated at 70° C. for ten minutes. Qiagen protease (0.005 Anson units) was added to the lysate and the mixture was incubated overnight. Qiagen protease was then inactivated at 95° C. for ten minutes.
The crude lysate was used as the template for strand-preferential quantitative polymerase chain reaction (q-PCR) analysis. Quantitative PCR was performed with 40 cycles of 95° C. for 15 s and 60° C. for 1 minute employing the Kappa Probe Force universal PCR master mix.

HSV-1 = experiment: Anti-HSV-1 replication assay (Vero cells, plaque titer); type: cell-based, herpes simplex virus 1; conditions: Human alphaherpesvirus 1, Vero, values separated by / are repeats; for log reduction at 1 µM: compound at 1 μM; for log reduction at 5 µM: compound at 5 μM; for log reduction at 0.33 µM: compound at 0.33 μM, read-out: HSV-1 suppression 0.33 μM
[2] = CC50, Table 3 sulfur compounds, MTT
[3] = Table 3 sulfur compounds, read-out: C. neoformans MIC80
[4] = Table 3 sulfur compounds, read-out: HSV-1 suppression 1 μM
[5] = Table 3 sulfur compounds, read-out: HSV-1 suppression 5 μM

Row | Structure (SMILES) | CC50 at 24 h (in vitro; [2]) [µM] | MIC80 ([1]; read-out: C. neoformans MIC80, Table 3 sulfur compounds) [µM] | EC50 (HBV replication) [µM] | log reduction at 1 µM (HSV-1; read-out: HSV-1 suppression 1 μM, Table 3 sulfur compounds) | log reduction at 5 µM (HSV-1; read-out: HSV-1 suppression 5 μM, Table 3 sulfur compounds) | MIC80 [1, 3] [µM] | log reduction at 0.33 µM (HSV-1; Table 3 sulfur compounds) | log reduction at 1 µM (HSV-1; [4]) | log reduction at 5 µM (HSV-1; [5]) | CC50 at 24 h (in vitro; CC50) [µM] | Therapeutic index (CC50/EC50) for HBV (TI, SI) (HBV replication)
1 | CCCCCCSc1ccc(SCCCCCC)c(O)c(=O)c1O [compound 841] | 7.8 | 5 (≈ 1.85 µg/mL) | 10.7 | 4.99 | 4.77 |  |  |  |  |  | 
2 | CC(C)Sc1ccc(SC(C)C)c(O)c(=O)c1O [compound 696] | 9.3 |  | 12.7 |  |  | 1.4 (≈ 0.401 µg/mL) | -0.06 | 0.08 | 5.82 |  | 
3 | CSc1cccc(O)c(=O)c1O [compound 385] | 100 |  | 4.4 |  |  | 24 (≈ 4.42 µg/mL) |  |  | 2.5 | 100 | 
4 | CSc1ccc(SC)c(O)c(=O)c1O [compound 386] | 68.9 |  | 6.73 |  |  | 24 (≈ 5.53 µg/mL) |  |  | 0.51 |  | 
5 | O=c1c(O)c(S(=O)(=O)Cc2ccccc2)ccc(S(=O)(=O)Cc2ccccc2)c1O [compound 706] | 73 |  | 51.4 |  |  | 49 (≈ 21.9 µg/mL) |  |  | 0.59 |  | 
6 | Cc1ccc(S(=O)(=O)c2cc(O)c(=O)c(O)cc2C)cc1 [compound 367] | 23 |  | 16.1 |  |  | 24 (≈ 7.35 µg/mL) |  | 0 | 0.49 |  | 
7 | CS(=O)(=O)c1ccc(O)c(=O)c(O)c1 [compound 382] | 79.5 |  | 0.58 |  |  | 50 (≈ 10.8 µg/mL) |  |  |  |  | 136
8 | O=c1c(O)cccc(S(=O)(=O)c2ccccc2)c1O [compound 408] | 20.4 |  | 11.1 |  |  | 50 (≈ 13.9 µg/mL) |  |  | 0.56 |  | 
9 | CC(C)S(=O)(=O)c1cccc(O)c(=O)c1O [compound 537] | 20.6 |  | 0.51 |  |  | 50 (≈ 12.2 µg/mL) |  | 0.25 |  |  | 41
10 | Cc1cc(O)c(=O)c(O)cc1S(=O)(=O)c1ccccc1 [compound 336] |  |  | 0.68 |  |  | 50 (≈ 14.6 µg/mL) | 0.13 |  | 1.57 |  | 
11 | CCCCCCS(=O)(=O)c1cccc(O)c(=O)c1O [compound 699] | 13.1 |  | 6.83 |  |  | 10 (≈ 2.86 µg/mL) |  | 0.2 | 4.39 |  | 
12 | CCCCS(=O)(=O)c1ccc(S(=O)(=O)CCCC)c(O)c(=O)c1O [compound 536] | 100 |  | 50 |  |  | 50 (≈ 18.9 µg/mL) |  | 0.09 | 0.35 | 100 | 
